Patent US6323186A, “Phosphate-bound polyazaindacene derivatives of nucleotides” (Molecular Probes, Inc., priority 2000, dated 2001)

Assay: Relative quantum yield determination for labeled nucleotides
Type: physicochemical
Source text: […] The concentration of this solution is matched with that of a solution of Compound 2 in the same solvent by matching the optical density (OD) at the absorption wavelength maximum, which is 504 nm for both samples.

[1] = in methanol, relative to reference fluorophore
[2] = pH 9 phosphate buffer, OD matched at absorption maximum, excited at λmax, reference 4,4-difluoro-5,7-dimethyl-4-bora-3a,4a-diaza-s-indacene-3-propionic acid
[3] = pH 9 phosphate buffer, relative to reference fluorophore

Cc1cc(C)n2c1C=C1C=CC(CNC(=O)CSP(=O)(O)OP(=O)(O)OP(=O)(O)OC[C@H]3O[C@@H](n4cnc5c(=O)[nH]c(N)nc54)[C@H](O)[C@@H]3O)=[N+]1[B-]2(F)F [Compound 2]
fluorescence quenched [1]: 41% | fluorescence yield relative to reference fluorophore [1]: 59% | fluorescence yield relative to reference fluorophore [2]: 11% | fluorescence quenched [3]: 89%

Nc1nc2c(ncn2[C@@H]2O[C@H](COP(=O)(O)OP(=O)(O)OP(=O)(O)SCC(=O)NCCCCCNC(=O)COc3ccc(C4=[N+]5C(=Cc6ccc(-c7cccs7)n6[B-]5(F)F)C=C4)cc3)[C@@H](O)[C@H]2O)c(=O)[nH]1 [Compound 4]
fluorescence quenched [1]: 25% | fluorescence yield relative to reference fluorophore [1]: 75% | fluorescence yield relative to reference fluorophore [2]: 9.1% | fluorescence quenched [3]: 90.9%
